Measured values: PMC11790914, “Chemogenomics for steroid hormone receptors (NR3)” (Communications Chemistry, 2025)
Several values for one entry are separate records, joined by “and”; a condition that tells them apart may be missing. Equal values may be shown once.

Assays:
ABL1 = target: T1, ABL1 (Homo sapiens, UniProt P00519); assay: Liability panel screening by DSF: ABL1; type: binding; conditions: DSF, 20 µM, n=2; read-out: Mean ΔTM ABL1
T1 construct: made in house
Outline: (§1)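 Recombinant protein at 2 µM in 10 mM HEPES pH 7.5 with 500 mM NaCl was mixed with SYPRO Orange (1:1000) and heated at 3 °C/min up to 85 °C. Tm was taken as the Boltzmann-fit inflection point. Shifts are ∆Tm in K from technical duplicates.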

TRIM24 = target: T2, TRIM24 (Homo sapiens, UniProt O15164); assay: Liability panel screening by DSF: TRIM24; type: binding; conditions: DSF, 20 µM, n=2; read-out: Mean ΔTM TRIM24
T2 construct: This panel comprised ten highly ligandable kinases and bromodomains; made in house
T2 sequence (O15164 899-1004 limits assumed): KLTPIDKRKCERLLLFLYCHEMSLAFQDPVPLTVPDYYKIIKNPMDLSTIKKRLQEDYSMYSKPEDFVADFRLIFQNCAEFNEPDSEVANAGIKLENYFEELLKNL
Outline: as §1

CDK2 = target: T3, CDK2 (Homo sapiens, UniProt P24941); assay: Liability panel screening by DSF: CDK2; type: binding; conditions: DSF, 20 µM, n=2; read-out: Mean ΔTM CDK2
T3 construct: made in house
Outline: as §1

BRD4 = target: T4, BRD4 (Homo sapiens, UniProt O60885); assay: Liability panel screening by DSF: BRD4; type: binding; conditions: DSF, 20 µM, n=2; read-out: Mean ΔTM BRD4
T4 construct: This panel comprised ten highly ligandable kinases and bromodomains; made in house
Outline: as §1

MAPK1 = target: T5, MAPK1 (Homo sapiens, UniProt P28482); assay: Liability panel screening by DSF: MAPK1; type: binding; conditions: DSF, 20 µM, n=2; read-out: Mean ΔTM MAPK1
T5 construct: made in house
T5 sequence (P28482 whole entry, species assumed): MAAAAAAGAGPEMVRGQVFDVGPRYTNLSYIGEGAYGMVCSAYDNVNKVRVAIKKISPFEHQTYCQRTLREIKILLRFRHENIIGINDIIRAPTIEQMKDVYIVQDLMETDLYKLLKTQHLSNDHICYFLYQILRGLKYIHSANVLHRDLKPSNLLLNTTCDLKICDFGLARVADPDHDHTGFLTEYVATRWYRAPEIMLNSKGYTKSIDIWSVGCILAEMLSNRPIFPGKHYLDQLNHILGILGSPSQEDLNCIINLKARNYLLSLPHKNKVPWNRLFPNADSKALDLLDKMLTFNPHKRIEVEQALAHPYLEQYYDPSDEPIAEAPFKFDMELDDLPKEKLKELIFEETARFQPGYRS
Outline: as §1

AURKA = target: T6, AURKA (Homo sapiens, UniProt O14965); assay: Liability panel screening by DSF: AURKA; type: binding; conditions: DSF, 20 µM, n=2; read-out: Mean ΔTM AURKA
T6 construct: made in house
T6 sequence (O14965 1-403): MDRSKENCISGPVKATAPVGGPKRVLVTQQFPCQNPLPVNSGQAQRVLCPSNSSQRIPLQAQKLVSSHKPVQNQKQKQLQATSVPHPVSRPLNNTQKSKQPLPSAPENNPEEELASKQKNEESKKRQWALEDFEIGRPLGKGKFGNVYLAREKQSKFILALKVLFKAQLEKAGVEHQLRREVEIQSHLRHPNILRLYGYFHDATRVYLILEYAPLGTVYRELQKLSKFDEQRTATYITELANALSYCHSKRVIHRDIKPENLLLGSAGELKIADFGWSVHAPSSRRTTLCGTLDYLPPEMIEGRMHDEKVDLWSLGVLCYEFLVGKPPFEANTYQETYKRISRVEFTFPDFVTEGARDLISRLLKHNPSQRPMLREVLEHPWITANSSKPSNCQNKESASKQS
Outline: as §1

[1] = tested on: ATF6 activity in Hela ATF6 reporter cells; assay: Endoplasmic reticulum stress assay (ATF6 Renilla luciferase reporter, tunicamycin); type: cell-based; conditions: for ATF6 activity (tunicamycin-induced endoplasmic reticulum stress): Hela ATF6 reporter cells, tunicamycin 100 ng/mL, 18 h, compounds at recommended concentrations, n = 5; for activity at 1 µM: Homo sapiens, HeLa, single replicates n=1 to n=5, read-out: ER stress [rel. ATF6 activity]
Outline: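 ER stress was induced by 100 ng/mL tunicamycin added 4 h after compound (0.1% DMSO) to HeLa ATF6 reporter cells. After 18 h more, Renilla luciferase signal was read and expressed relative to DMSO control, n=5 biological replicates.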

GSK3B = target: T7, GSK3B (Homo sapiens, UniProt P49841); assay: Liability panel screening by DSF: GSK3B; type: binding; conditions: DSF, 20 µM, n=2; read-out: Mean ΔTM GSK3B
T7 construct: made in house
T7 sequence (P49841 whole entry, species assumed): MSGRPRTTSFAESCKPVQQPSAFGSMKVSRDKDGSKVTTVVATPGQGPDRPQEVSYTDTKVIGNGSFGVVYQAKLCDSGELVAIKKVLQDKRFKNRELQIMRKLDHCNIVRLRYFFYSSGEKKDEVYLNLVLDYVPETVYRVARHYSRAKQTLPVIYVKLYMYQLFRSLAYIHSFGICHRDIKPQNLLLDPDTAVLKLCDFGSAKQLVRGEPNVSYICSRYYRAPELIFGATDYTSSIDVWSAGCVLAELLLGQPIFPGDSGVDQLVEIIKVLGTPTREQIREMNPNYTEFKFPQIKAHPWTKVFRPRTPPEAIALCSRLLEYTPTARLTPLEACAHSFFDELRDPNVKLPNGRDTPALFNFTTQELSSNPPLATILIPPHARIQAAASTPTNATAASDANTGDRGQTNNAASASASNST

BRPF1 = target: T8, BRPF1 (Homo sapiens, UniProt P55201); assay: Liability panel screening by DSF: BRPF1; type: binding; conditions: DSF, 20 µM, n=2; read-out: Mean ΔTM BRPF1
T8 construct: This panel comprised ten highly ligandable kinases and bromodomains; made in house
T8 sequence (P55201 628-732 limits assumed): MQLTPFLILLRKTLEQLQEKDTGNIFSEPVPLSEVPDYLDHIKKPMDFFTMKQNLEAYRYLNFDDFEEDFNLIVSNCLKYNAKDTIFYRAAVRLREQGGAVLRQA
Outline: as §1

[2] = tested on: NF-κB activity in HEK293 NF-κB reporter cells; assay: NF-kB activity assay (GFP reporter, ionomycin/PMA); type: cell-based; conditions: for Mean NFκB response: n=3
Outline: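 Reporter readout: GFP-expressing cells normalized to confluence, imaged every 90 min across 24 h after ionomycin (100 ng/mL)/PMA (10 ng/mL) stimulation of HEK293 cells pre-treated 4 h with compound (0.1% DMSO); triplicate independent experiments.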

HEK293T cells [3] = assay: Cytotoxicity: growth-rate (change in confluence over 24 h); conditions: 1 µM, normalized to 0.1% DMSO control, single replicates (n=1...)
FGFR3 = target: T9, FGFR3 (Homo sapiens, UniProt P22607); assay: Liability panel screening by DSF: FGFR3; type: binding; conditions: DSF, 20 µM, n=2; read-out: Mean ΔTM FGFR3
T9 construct: made in house
T9 sequence (P22607 23-806, species assumed): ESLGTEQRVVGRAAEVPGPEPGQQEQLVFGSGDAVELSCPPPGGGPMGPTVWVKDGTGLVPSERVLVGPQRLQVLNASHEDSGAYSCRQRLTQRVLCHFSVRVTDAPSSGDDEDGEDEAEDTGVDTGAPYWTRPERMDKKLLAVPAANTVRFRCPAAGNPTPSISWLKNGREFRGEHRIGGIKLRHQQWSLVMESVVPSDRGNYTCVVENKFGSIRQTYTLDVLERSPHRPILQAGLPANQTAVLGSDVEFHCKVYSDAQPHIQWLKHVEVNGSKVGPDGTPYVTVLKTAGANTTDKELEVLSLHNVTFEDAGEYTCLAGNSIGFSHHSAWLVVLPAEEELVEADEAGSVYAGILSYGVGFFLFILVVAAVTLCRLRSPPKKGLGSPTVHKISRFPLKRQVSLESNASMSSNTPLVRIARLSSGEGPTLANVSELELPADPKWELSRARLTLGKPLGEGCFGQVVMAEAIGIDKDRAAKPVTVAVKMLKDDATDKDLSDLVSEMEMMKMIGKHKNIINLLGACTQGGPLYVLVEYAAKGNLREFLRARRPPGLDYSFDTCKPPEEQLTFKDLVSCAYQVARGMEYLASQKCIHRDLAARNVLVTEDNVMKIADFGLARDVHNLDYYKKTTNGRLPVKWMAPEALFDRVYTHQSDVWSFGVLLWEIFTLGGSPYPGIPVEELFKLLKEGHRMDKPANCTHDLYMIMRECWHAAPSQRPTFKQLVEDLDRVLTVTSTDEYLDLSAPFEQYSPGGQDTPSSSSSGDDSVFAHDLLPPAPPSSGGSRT
Outline: as §1

HEK293T cells [4] = assay: Cytotoxicity: apoptosis induction (caspase-3/7 DEVD fluorogenic DNA dye); conditions: 1 µM; HEK293T, 24 h; apoptotic cell count normalized to 0.1% DMSO; single replicates

T1 sequence (P00519 whole entry, species assumed): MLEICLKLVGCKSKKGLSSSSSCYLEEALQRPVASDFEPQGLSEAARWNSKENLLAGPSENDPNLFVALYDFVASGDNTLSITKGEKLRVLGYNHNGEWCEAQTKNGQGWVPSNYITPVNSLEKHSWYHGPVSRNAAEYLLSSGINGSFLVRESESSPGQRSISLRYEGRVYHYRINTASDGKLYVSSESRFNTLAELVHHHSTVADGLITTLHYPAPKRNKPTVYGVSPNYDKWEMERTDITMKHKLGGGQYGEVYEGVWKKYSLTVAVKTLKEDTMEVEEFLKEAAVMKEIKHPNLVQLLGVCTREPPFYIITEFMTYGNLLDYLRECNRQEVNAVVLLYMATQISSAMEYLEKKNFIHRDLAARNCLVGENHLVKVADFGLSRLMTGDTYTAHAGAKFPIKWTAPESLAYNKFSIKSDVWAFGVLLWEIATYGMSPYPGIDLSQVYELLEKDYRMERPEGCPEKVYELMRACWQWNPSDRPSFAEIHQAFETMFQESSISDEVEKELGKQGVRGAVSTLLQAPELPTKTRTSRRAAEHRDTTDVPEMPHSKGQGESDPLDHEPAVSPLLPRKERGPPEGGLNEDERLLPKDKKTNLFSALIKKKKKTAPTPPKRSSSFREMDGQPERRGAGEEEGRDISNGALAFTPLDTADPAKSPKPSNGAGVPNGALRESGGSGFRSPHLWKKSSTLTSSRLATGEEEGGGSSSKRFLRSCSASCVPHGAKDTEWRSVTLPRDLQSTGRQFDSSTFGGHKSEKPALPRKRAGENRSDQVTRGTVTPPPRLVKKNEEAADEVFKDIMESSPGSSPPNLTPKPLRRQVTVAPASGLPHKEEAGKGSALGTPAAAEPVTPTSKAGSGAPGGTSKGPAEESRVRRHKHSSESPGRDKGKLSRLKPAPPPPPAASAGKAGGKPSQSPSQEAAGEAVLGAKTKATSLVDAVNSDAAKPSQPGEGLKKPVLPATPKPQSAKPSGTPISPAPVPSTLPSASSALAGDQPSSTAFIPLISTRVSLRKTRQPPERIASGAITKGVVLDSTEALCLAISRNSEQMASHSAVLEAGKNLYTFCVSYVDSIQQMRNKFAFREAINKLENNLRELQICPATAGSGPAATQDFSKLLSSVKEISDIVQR

COc1cc(/C=C(\C#N)C(=O)Nc2nnc(C(F)(F)F)s2)ccc1OCc1ccc(C(F)(F)F)cc1C(F)(F)F [XCT790]
ΔTm at 20 µM (ABL1): 0.47 °C | ΔTm at 20 µM (TRIM24): 0.29 °C | ΔTm at 20 µM (CDK2): 0.38 °C | ΔTm at 20 µM (BRD4): -2.31 °C | ΔTm at 20 µM (MAPK1): 0.28 °C | ΔTm at 20 µM (AURKA): -0.27 °C | ATF6 activity (tunicamycin-induced endoplasmic reticulum stress) [1]: lacked this effect | activity at 1 µM [1]: 100% | ΔTm at 20 µM (GSK3B): -0.62 °C | ΔTm at 20 µM (BRPF1): -1.02 °C | Mean NFκB response ([2]; 1 µM, 1,5 h): 3626.75 GFP+-cells/confluence ∙ 1000 | Mean NFκB response ([2]; 1 µM, 4,5 h): 4074.08 GFP+-cells/confluence ∙ 1000 | Mean NFκB response ([2]; 1 µM, 7,5 h): 7428.22 GFP+-cells/confluence ∙ 1000 | Mean NFκB response ([2]; 1 µM, 10,5 h): 16505.45 GFP+-cells/confluence ∙ 1000 | Mean NFκB response ([2]; 1 µM, 13,5 h): 23920.00 GFP+-cells/confluence ∙ 1000 | Mean NFκB response ([2]; 1 µM, 16,6 h): 29753.33 GFP+-cells/confluence ∙ 1000 | Mean NFκB response ([2]; 1 µM, 19,5 h): 33970.00 GFP+-cells/confluence ∙ 1000 | Mean NFκB response ([2]; 1 µM, 22,5 h): 37876.67 GFP+-cells/confluence ∙ 1000 | Mean NFκB response ([2]; 1 µM, 3 h): 3669.25 GFP+-cells/confluence ∙ 1000 | Mean NFκB response ([2]; 1 µM, 6 h): 4944.18 GFP+-cells/confluence ∙ 1000 | Mean NFκB response ([2]; 1 µM, 9 h): 11887.81 GFP+-cells/confluence ∙ 1000 | Mean NFκB response ([2]; 1 µM, 12 h): 20416.67 GFP+-cells/confluence ∙ 1000 | Mean NFκB response ([2]; 1 µM, 15 h): 27150.00 GFP+-cells/confluence ∙ 1000 | Mean NFκB response ([2]; 1 µM, 18 h): 32423.33 GFP+-cells/confluence ∙ 1000 | Mean NFκB response ([2]; 1 µM, 21 h): 35883.33 GFP+-cells/confluence ∙ 1000 | Mean NFκB response ([2]; 1 µM, 24 h): 39596.67 GFP+-cells/confluence ∙ 1000 | Growth rate [GR] (HEK293T cells [3]): 0.75 and 0.63 and 1.18 and 1.17 and 1.04 (2×) and 0.70 and 0.89 and 0.87 and 0.19 | ΔTm at 20 µM (FGFR3): 0.83 °C | Apoptosis induction [AI] (HEK293T cells [4]): 0.85 (2×) and 0.75 and 0.81 and 1.26 and 1.13

Cc1ccc2c(NC[C@](O)(CC(C)(C)c3cc(F)cc4c3OCC4)C(F)(F)F)cccc2n1 [Mapracorat]
ΔTm at 20 µM (ABL1): 0.24 °C | ΔTm at 20 µM (TRIM24): -0.84 °C | ΔTm at 20 µM (CDK2): -0.17 °C | ΔTm at 20 µM (BRD4): -0.11 °C | ΔTm at 20 µM (MAPK1): -0.47 °C | ΔTm at 20 µM (AURKA): -0.69 °C | ATF6 activity (tunicamycin-induced endoplasmic reticulum stress) [1]: Consistently weaker ATF6 activity | activity at 1 µM [1]: 83% | ΔTm at 20 µM (GSK3B): -0.25 °C | ΔTm at 20 µM (BRPF1): 0.63 °C | Mean NFκB response ([2]; 1 µM, 1,5 h): 2171.23 GFP+-cells/confluence ∙ 1000 | Mean NFκB response ([2]; 1 µM, 4,5 h): 3001.35 GFP+-cells/confluence ∙ 1000 | Mean NFκB response ([2]; 1 µM, 7,5 h): 6252.60 GFP+-cells/confluence ∙ 1000 | Mean NFκB response ([2]; 1 µM, 10,5 h): 12057.95 GFP+-cells/confluence ∙ 1000 | Mean NFκB response ([2]; 1 µM, 13,5 h): 15815.67 GFP+-cells/confluence ∙ 1000 | Mean NFκB response ([2]; 1 µM, 16,6 h): 19330.00 GFP+-cells/confluence ∙ 1000 | Mean NFκB response ([2]; 1 µM, 19,5 h): 21866.67 GFP+-cells/confluence ∙ 1000 | Mean NFκB response ([2]; 1 µM, 22,5 h): 23846.67 GFP+-cells/confluence ∙ 1000 | Mean NFκB response ([2]; 1 µM, 3 h): 2434.19 GFP+-cells/confluence ∙ 1000 | Mean NFκB response ([2]; 1 µM, 6 h): 4081.73 GFP+-cells/confluence ∙ 1000 | Mean NFκB response ([2]; 1 µM, 9 h): 9170.03 GFP+-cells/confluence ∙ 1000 | Mean NFκB response ([2]; 1 µM, 12 h): 13883.00 GFP+-cells/confluence ∙ 1000 | Mean NFκB response ([2]; 1 µM, 15 h): 17560.00 GFP+-cells/confluence ∙ 1000 | Mean NFκB response ([2]; 1 µM, 18 h): 20616.67 GFP+-cells/confluence ∙ 1000 | Mean NFκB response ([2]; 1 µM, 21 h): 23216.67 GFP+-cells/confluence ∙ 1000 | Mean NFκB response ([2]; 1 µM, 24 h): 25073.33 GFP+-cells/confluence ∙ 1000 | NF-κB activity (inflammatory response to ionomycin/PMA) ([2]; HEK293 NF-κB reporter cells, compounds at recommended concentrations, imaged over 24 h, n = 3): consistently delayed and strongly diminished NF-κB activity | Growth rate [GR] (HEK293T cells [3]): 0.90 and 6.11 and 0.92 and 1.17 and 0.84 and 0.73 and 1.07 and 1.61 and 3.67 and 14.17 | ΔTm at 20 µM (FGFR3): -1.28 °C | Apoptosis induction [AI] (HEK293T cells [4]): -0.37 and -0.27 and 0.87 and 1.32 and 1.12 and 1.57
